SMILES strings stand for the structures.

This experiment deals with T1, MerTK (Homo sapiens, UniProt Q12866).
T1 construct: endogenous in cells; host or cells: Jurkat cells
T1 sequence (Q12866 21-999): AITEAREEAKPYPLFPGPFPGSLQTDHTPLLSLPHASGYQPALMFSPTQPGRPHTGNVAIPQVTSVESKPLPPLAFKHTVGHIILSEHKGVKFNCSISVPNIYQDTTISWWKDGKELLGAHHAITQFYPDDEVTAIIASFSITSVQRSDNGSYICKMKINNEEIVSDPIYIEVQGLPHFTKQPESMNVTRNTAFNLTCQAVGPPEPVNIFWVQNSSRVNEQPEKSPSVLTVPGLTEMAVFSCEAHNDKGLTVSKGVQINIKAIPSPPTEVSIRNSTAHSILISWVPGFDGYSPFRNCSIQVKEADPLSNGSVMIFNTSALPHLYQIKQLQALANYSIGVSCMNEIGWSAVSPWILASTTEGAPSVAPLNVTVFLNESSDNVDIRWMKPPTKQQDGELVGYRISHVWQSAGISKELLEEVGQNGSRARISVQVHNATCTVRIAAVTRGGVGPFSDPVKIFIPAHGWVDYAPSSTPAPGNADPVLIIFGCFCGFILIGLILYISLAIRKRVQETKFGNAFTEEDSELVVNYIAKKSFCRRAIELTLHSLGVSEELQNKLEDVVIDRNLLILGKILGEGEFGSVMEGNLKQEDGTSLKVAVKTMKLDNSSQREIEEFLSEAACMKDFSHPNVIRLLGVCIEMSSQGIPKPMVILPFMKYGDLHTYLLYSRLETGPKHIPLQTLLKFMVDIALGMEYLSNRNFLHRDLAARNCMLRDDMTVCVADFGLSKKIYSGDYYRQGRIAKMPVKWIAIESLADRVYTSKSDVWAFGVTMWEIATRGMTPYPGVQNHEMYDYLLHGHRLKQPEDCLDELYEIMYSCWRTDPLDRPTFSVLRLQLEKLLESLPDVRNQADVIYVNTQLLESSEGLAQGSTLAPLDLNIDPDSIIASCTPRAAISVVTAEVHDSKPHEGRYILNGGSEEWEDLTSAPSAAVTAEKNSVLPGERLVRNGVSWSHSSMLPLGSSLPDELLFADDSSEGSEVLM
As to the kind of experiment: MerTk degradation in Jurkat cells (Western blot). The experiment is classed as cell-based. Conditions: Jurkat, 4 h, 0.001-1 μM, 4 hour-incubation at 37° C., read-out: Jurkat Max % MerTK Degradation. An outline of the steps:
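Jurkat cells treated 4 h at 37 °C with compound at 0.001-1 μM final. RIPA lysates quantified by BCA, then MerTK probed by Western blot against actin loading control with IR-dye secondaries and Odyssey imaging.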
On the technique in general: A western blot detects proteins with antibodies after separation by electrophoresis.

Take `C[C@@H](c1ccc(-c2cn([C@H]3CC[C@H](O)CC3)c3nc(NCCC(F)(F)F)ncc23)cc1)N1CCN(CCCOCCCc2ccc3c(c2)n(C)c(=O)n3C2CCC(=O)NC2=O)CC1` (stereo partly drawn) [I-102, 3-[3-methyl-2-oxo-5-[3-(3-[4-[(1S)-1-(4-[7-[trans-4-hydroxycyclohexy1]-2-[(3,3,3-trifluoropropyl)amino]-7H-pyrrolo[2,3-d]pyrimidin-5-yl]phenyl)ethyl]piperazin-1-yl]propoxy)propyl]-2,3-dihydro-1H-1,3-benzodiazol-1-yl]piperidine-2,6-dione; formic acid]: the Dmax was over 50%. In the case of `CCC[C@H](C)Nc1ncc2c(n1)n([C@H]1CC[C@H](O)CC1)cc2[C@H]1CC[C@H](CN2CCN(CCCOC3CN(Cc4ccc5c(c4)n(C)c(=O)n5C4CCC(=O)NC4=O)C3)CC2)CC1` (stereo partly drawn) [I-223, 3-[3-methyl-2-oxo-5-([3-[3-(4-[[trans-4-[2-[(2S)-pentan-2-ylamino]-7-[trans-4-hydroxycyclohexyl]pyrrolo[2,3-d]pyrimidin-5-yl]cyclohexyl]methyl]piperazin-1-y1)propoxy]azetidin-1-yl]methyl)-1,3-benzodiazol-1-yl]piperidine-2,6-dione], the Dmax was 20 to 50%. Take `O=C1CC[C@H](n2c3ccc(NCCOCCOCCN4CCN(Cc5ccc(-c6cn([C@H]7CC[C@H](O)CC7)c7nc(NCCC(F)(F)F)ncc67)cc5)CC4)cc3c3cccnc32)C(=O)N1` [I-133, 3-[6-([2-[2-(2-[4-[(4-[7-[trans-4-hydroxycyclohexyl]-2-[(3,3,3-trifluoropropyl)amino]pyrrolo[2,3-d]pyrimidin-5-yl]phenyl)methyl]piperazin-1-yl]ethoxy)ethoxy]ethyl]amino)pyrido[2,3-b]indol-9-yl]piperidine-2,6-dione; formic acid]: the Dmax is over 50%. For `CCC[C@H](C)Nc1ncc2c(n1)n([C@H]1CC[C@H](O)CC1)cc2[C@H]1CC[C@@H](CN2CCN(CCCOC3CCN(Cc4ccc5c(c4)n(C)c(=O)n5C4CCC(=O)NC4=O)CC3)CC2)CC1` (stereo partly drawn) [I-207] the value was over 50%; for `C[C@H]1CN(Cc2ccc(-c3cn([C@H]4CC[C@H](O)CC4)c4nc(NCCC(F)(F)F)ncc34)cc2)CCN1CCCOCCCc1ccc2c(c1)n(C)c(=O)n2C1CCC(=O)NC1=O` (stereo partly drawn) [I-106, 3-[3-methyl-5-(3-[3-[(2S)-2-methyl-4-[(4-[7-[trans-4-hydroxycyclohexy1]-2-[(3,3,3-trifluoropropyl)amino]-7H-pyrrolo[2,3-d]pyrimidin-5-yl]phenyl)methyl]piperazin-1-yl]propoxy]propyl)-2-oxo-2,3-dihydro-1H-1,3-benzodiazol-1-yl]piperidine-2,6-dione; formic acid], over 50%; for `O=C(c1ccc(CNCc2ccc(-c3ccc4c(cnn4CC4CC4)c3)cc2)cc1)N1CC(C2CCN(Cc3ccc(-c4cn([C@H]5CC[C@H](O)CC5)c5nc(NCCC(F)(F)F)ncc45)cc3)CC2)C1` [I-181, trans-4-[5-[4-([4-[1-(4-[[([4-[1-(Cyclopropylmethyl)indazol-5-yl]phenyl]methyl)amino]methyl]benzoyl)azetidin-3-yl]piperidin-1-yl]methyl)phenyl]-2-[(3,3,3-trifluoropropyl)amino]pyrrolo[2,3-d]pyrimidin-7-yl]cyclohexan-1-ol], under 20%. Consider `CCC[C@H](C)Nc1ncc2c(n1)n([C@H]1CC[C@H](O)CC1)cc2[C@H]1CC[C@H](CN2CCN(CCCO[C@H]3CCN(Cc4ccc5c(c4)n(C)c(=O)n5C4CCC(=O)NC4=O)C3)CC2)CC1` (stereo partly drawn) [I-211, 3-(3-methyl-2-oxo-5-[[(3S)-3-[3-(4-[[trans-4-[2-[(2S)-pentan-2-ylamino]-7-[trans-4-hydroxycyclohexyl]pyrrolo[2,3-d]pyrimidin-5-yl]cyclohexyl]methyl]piperazin-1-yl)propoxy]pyrrolidin-1-yl]methyl]-1,3-benzodiazol-1-yl)piperidine-2,6-dione], for which the Dmax is over 50%. To `Cn1c(=O)n([C@H]2CCC(=O)NC2=O)c2cccc(CN3CCC(CC4CCN(Cc5ccc(-c6cn([C@H]7CC[C@H](O)CC7)c7nc(NCCC(F)(F)F)ncc67)cc5)CC4)CC3)c21` [I-159, 3-(3-methyl-2-oxo-4-[[4-([1-[(4-[7-[trans-4-hydroxycyclohexy1]-2-[(3,3,3-trifluoropropyl)amino]pyrrolo[2,3-d]pyrimidin-5-y1]phenyl)methyl]piperidin-4-y1]methyl)piperidin-1-yl]methyl]-1,3-benzodiazol-1-yl)piperidine-2,6-dione] belongs over 50%.

On to `Cn1c(=O)n([C@H]2CCC(=O)NC2=O)c2ccc(CCOCCN3CCC(N4CCN(Cc5ccc(-c6cn([C@H]7CC[C@H](O)CC7)c7nc(NCCC(F)(F)F)ncc67)cc5)CC4)CC3)cc21` [I-130, 3-(3-methyl-2-oxo-5-[2-[2-(4-[4-[(4-[7-[trans-4-hydroxycyclohexyl]-2-[(3,3,3-trifluoropropyl)amino]-7H-pyrrolo[2,3-d]pyrimidin-5-yl]phenyl)methyl]piperazin-1-yl]piperidin-1-y1)ethoxy]ethyl]-2,3-dihydro-1H-1,3-benzodiazol-1-y1)piperidine-2,6-dione], for which the Dmax is over 50%. For the compound `Cn1c(=O)n([C@H]2CCC(=O)NC2=O)c2ccc(CCCOCCOCC3CCN(C[C@H]4CC[C@H](c5cn([C@H]6CC[C@H](O)CC6)c6nc(NCCC(F)(F)F)ncc65)CC4)CC3)cc21` [I-172, 3-[3-methyl-2-oxo-5-(3-[2-[(1-[[trans-4-[7-[trans-4-hydroxycyclohexy1]-2-[(3,3,3-trifluoropropyl)amino]pyrrolo[2,3-d]pyrimidin-5-yl]cyclohexyl]methyl]piperidin-4-yl)methoxy]ethoxy]propy1)-1,3-benzodiazol-1-yl]piperidine-2,6-dione], the Dmax was over 50%. Turning to `Cn1c(=O)n(C2CCC(=O)NC2=O)c2ccc(CCCCN3CCC(N4CCN(Cc5ccc(-c6cn([C@H]7CC[C@H](O)CC7)c7nc(NCCC(F)(F)F)ncc67)cc5)CC4)C3)cc21` (stereo partly drawn) [I-123, 3-[3-methyl-2-oxo-5-[4-(3-[4-[(4-[7-[trans-4-hydroxycyclohexyl]-2-[(3,3,3-trifluoropropyl)amino]-7H-pyrrolo[2,3-d]pyrimidin-5-yl]phenyl)methyl]piperazin-1-yl]pyrrolidin-1-yl)butyl]-2,3-dihydro-1H-1,3-benzodiazol-1-yl]piperidine-2,6-dione; formic acid], the Dmax is over 50%.

On to `CCCCNc1ncc2c(-c3ccc(CN4CCN(CCOCCOCCOCCCc5ccc6c(c5)n(C)c(=O)n6[C@H]5CCC(=O)NC5=O)CC4)cc3)nn([C@H]3CC[C@H](O)CC3)c2n1` [I-49, 3-(5-[3-[2-(2-[2-[4-([4-[6-(butylamino)-1-[trans-4-hydroxycyclohexy1]-1H-pyrazolo[3,4-d]pyrimidin-3-yl]phenyl]methyl)piperazin-1-yl]ethoxy]ethoxy)ethoxy]propyl]-3-methyl-2-oxo-2,3-dihydro-1H-1,3-benzodiazol-1-y1)piperidine-2,6-dione; formic acid], for which the Dmax was over 50%. As to `Cn1c(=O)n([C@H]2CCC(=O)NC2=O)c2ccc(COCCCN3CCN(Cc4ccc(-c5cn([C@H]6CC[C@H](O)CC6)c6nc(NCCC(F)(F)F)ncc56)cc4)CC3)cc21` [I-149, 3-[3-methyl-2-oxo-5-[(3-[4-[(4-[7-[trans-4-hydroxycyclohexy1]-2-[(3,3,3-trifluoropropyl)amino]pyrrolo[2,3-d]pyrimidin-5-yl]phenyl)methyl]piperazin-1-yl]propoxy)methyl]-1,3-benzodiazol-1-y1]piperidine-2,6-dione; formic acid], the Dmax is over 50%.

Consider `CCC[C@H](C)Nc1ncc2c(-c3ccc(CN4CCN(C5CC(OCCc6ccc7c(c6)n(C)c(=O)n7C6CCC(=O)NC6=O)C5)CC4)cc3)cn([C@H]3CC[C@@](C)(O)CC3)c2n1` (stereo partly drawn) [I-187, 3-[3-methyl-2-oxo-5-[2-(3-[4-[(4-[2-[(2S)-pentan-2-ylamino]-7-[cis-4-hydroxy-4-methylcyclohexyl]pyrrolo[2,3-d]pyrimidin-5-yl]phenyl)methyl]piperazin-1-yl]cyclobutoxy)ethyl]-1,3-benzodiazol-1-yl]piperidine-2,6-dione; formic acid], for which the Dmax is over 50%. For `Cn1c(=O)n(C2CCC(=O)NC2=O)c2ccc(CCCN3CCC(N4CCN(Cc5ccc(-c6cn([C@H]7CC[C@H](O)CC7)c7nc(NCCC(F)(F)F)ncc67)cc5)CC4)C3)cc21` (stereo partly drawn) [I-122, 3-[3-methyl-2-oxo-5-[3-(3-[4-[(4-[7-[trans-4-hydroxycyclohexy1]-2-[(3,3,3-trifluoropropyl)amino]-7H-pyrrolo[2,3-d]pyrimidin-5-yl]phenyl)methyl]piperazin-1-y1]pyrrolidin-1-y1)propyl]-2,3-dihydro-1H-1,3-benzodiazol-1-yl]piperidine-2,6-dione; formic acid], the Dmax is over 50%.

For the origin of these results see US20260042762A1 (Kymera Therapeutics, Inc., priority 2018, published 2026).
